Reference: patent publication US20070110693A1, “COMPOSITIONS CONTAINING PEPTIDE COPPER COMPLEXES AND SOFT TISSUE FILLERS, AND METHODS RELATED THERETO” (PROCYTE CORPORATION, priority 2002, published 2007)

Key:
[1] = system: collagen synthesis; assay: Subcutaneous stainless steel chamber implant model: collagen content measured as hydroxyproline (HYP); type: in vivo, rat
Description: (§1) The subcutaneous implantation of stainless steel chambers in rats provides a model for studying the synthesis of extracellular matrix components (collagen and glycosaminoglycan) by providing a recoverable site of new matrix synthesis. The assay involves implanting in each rat, two cylindrical stainless steel chambers (1 cm in diameter×2.5 cm long, 312 SS, 20 mesh, with Teflon end caps), one on each side of the rats' dorsal midline. After allowing for encapsulation of the chambers, both chambers on each rat were injected with 0.2 ml of a solution containing the representative soft tissue filler or saline on day 4 after implantation, and the test peptide copper compound (or saline alone as a control) on days 6, 8, 11, 13, 15, 16, and 18. Chambers were removed from the animals on day 30 after implantation for biochemical analysis.
The chambers were lyophylized and the interior contents removed for biochemical analysis. The biochemical parameters examined include collagen content, the latter being measured as a hydroxyproline (“HYP”) content. The latter, an amino acid specific for collagen, was measured after acid hydrolysis and using a colormetric assay for HYP (see e.g., Bergman, I and Loxley, R., “The Determination of Hydroxyproline in Urine Hydrolysates,” Clin. Chim. Acta. 27: 347-349, 1970). Collagen content was expressed as μg of HYP per chamber or per milligram of protein.
(§2) In this example, hydroxypropyl methyl cellulose was used as the soft tissue filler. A dose of 6 milligrams of the hydroxypropyl methyl cellulose, as a gel, was injected into each of the chambers. Injections of saline served as controls.
(§3) Glycyl-L-histidyl-L-lysine:copper(II) (“GHK-Cu”), was used as the peptide copper complex used. The GHK-Cu was prepared at a molar ratio of 2 moles of peptide to one mole of copper(II), and dissolved in a saline solution at a concentration of 10 milligrams/milliliter. A dose of […] of GHK-Cu was injected for each day of treatment.
(§4) The stimulation of collagen and GAG synthesis by injection of various peptide copper complexes has been determined by methods described in Example 1. The peptide copper complexes used were L-alanyl-L-histidyl-L-lysine:copper(II) (“AHK-Cu”), prepared at a molar ratio of 1 mole of peptide to one mole of copper(II), and glycyl-L-histidyl-L-lysyl-L-valyl-L-phenylalanyl-L-valine:copper(II) (“GHKVFV-Cu”), prepared at a molar ratio of 2 moles of peptide to one mole of copper(II). The peptide copper complexes were dissolved in a saline solution at a concentration of 10 milligrams/milliliter. A dose of 2.4 micromoles of peptide copper complex was injected on each treatment day.
The stimulation of collagen synthesis by injection of various peptide copper complexes has been determined by methods described in Examples 1 and 2. […]

[2] = system: glycosaminoglycan (GAG) synthesis; assay: Subcutaneous stainless steel chamber implant model: glycosaminoglycan (GAG) content measured as uronic acid (UA); type: in vivo, rat
Description: as §1
The chambers were also analyzed for glycosaminoglycan content, another component of the extracellular matrix or skin. Glycosaminoglycan (“GAG”) content was determined by quantifying the amount of uronic acid (“UA”), a carbohydrate component specific for GAGs. UA was determined by a colorimetric assay, as described using 2-hydroxydiphenyl as a reagent (see, e.g., Vilim, V., “Colorimetric Estimation of Uronic Acids using 2-hydroxydiphenyl as a Reagent,” Biomed. Biochim. Acta. 44 11/12 s: 1717-1720, 1985). GAG content was expressed as μg of UA per chamber.
as §2, §3, §4

[3] = Example 3, 0.6 mg of peptide copper complex per treatment day, saline control 1838 ± 636
[4] = Example 2, 2.4 micromoles of peptide copper complex per treatment day, saline control 60 ± 5

Row | Substance | μg HYP/Chamber Mean ± SEM [1, 3] [μg HYP/Chamber] | μg Uronic Acid/Chamber Mean ± SEM [2, 4] [μg Uronic Acid/Chamber] | further results
1 | glycyl-L-histidyl-L-leucine methyl ester:copper(II) [GHL-Me-Cu] | 3357 ± 863 |  | 
2 | glycyl-L-histidyl-L-lysyl-L-valyl-L-phenylalanyl-L-valine:copper(II) [GHKVFV-Cu] |  | 79 ± 9 | 
3 | L-alanyl-L-histidyl-L-lysine:copper(II) [AHK-Cu] |  | 105 ± 21 | 
4 | glycyl-L-histidyl-L-leucine:copper(II) [GHL-Cu] | 3619 ± 754 |  | 
5 | Glycyl-L-histidyl-L-lysine:copper(II) [GHK-Cu] |  |  | μg HYP/Chamber Mean ± SEM ([1]; Example 1, GHK-Cu 0.2 mg per treatment day in combination with soft tissue filler HPMC 6 mg on day 4, chambers removed day 30, saline control 1222 ± 111): 3423 ± 341 μg HYP/Chamber; μg HYP/Chamber Mean ± SEM ([1]; Example 1, agent alone (GHK-Cu 0.2 mg per treatment day on days 6-18, or HPMC gel 6 mg on day 4), chambers removed day 30, saline control 1222 ± 111): 4226 ± 265 μg HYP/Chamber; μg Uronic Acid/Chamber Mean ± SEM ([2]; Example 1, GHK-Cu 0.2 mg per treatment day in combination with soft tissue filler HPMC 6 mg on day 4, chambers removed day 30, saline control 46.3 ± 5.8): 88.1 ± 5.6 μg Uronic Acid/Chamber; μg Uronic Acid/Chamber Mean ± SEM ([2]; Example 1, agent alone (GHK-Cu 0.2 mg per treatment day on days 6-18, or HPMC gel 6 mg on day 4), chambers removed day 30, saline control 46.3 ± 5.8): 117.3 ± 12.9 μg Uronic Acid/Chamber
